For this experiment, the target named is T1, Orexin receptor type 2 (Homo sapiens, UniProt O43614).
T1 sequence (O43614 whole entry): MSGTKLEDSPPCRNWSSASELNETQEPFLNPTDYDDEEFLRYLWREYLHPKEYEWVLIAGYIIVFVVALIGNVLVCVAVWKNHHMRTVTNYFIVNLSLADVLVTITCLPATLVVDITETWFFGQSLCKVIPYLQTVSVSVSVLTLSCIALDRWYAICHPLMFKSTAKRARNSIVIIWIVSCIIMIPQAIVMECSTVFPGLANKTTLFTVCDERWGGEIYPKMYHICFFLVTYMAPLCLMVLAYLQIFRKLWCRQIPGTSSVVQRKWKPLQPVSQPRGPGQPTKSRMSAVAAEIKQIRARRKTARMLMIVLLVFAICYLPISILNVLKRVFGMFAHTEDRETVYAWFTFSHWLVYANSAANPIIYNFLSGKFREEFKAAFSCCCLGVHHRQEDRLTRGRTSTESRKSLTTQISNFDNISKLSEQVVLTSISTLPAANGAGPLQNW
Put plainly: FLIPR Ca2+ Flux Assay: Assay methodology using FLIPR Ca2+ Flux Assay (Okumura et al., Biochem. Biophys. Res. Comm. 280:976-981, 2001). In kind it is functional.

Compound `COc1ccc(CNC(=O)c2cc(-c3cncc(C)c3)ncc2-c2ccccc2)nc1OC` came in with a Ki of 0.72 nM.
